Test results from PubChem BioAssay AID248 (DTP/NCI, 2004).
“And” between values parts separate entries of the source, which are not always exact repeats. Equal entries are not always repeated. Inconclusive results and toxic doses are left out.

System: L1210 leukemia ip in BDF1 mice, survival T/C
Assay: NCI In Vivo Anticancer Drug Screen. Data for tumor model L1210 Leukemia (intraperitoneal) in B6D2F1 (BDF1) mice
Settings: endpoint: mean survival time, higher = longer survival
How it was run: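 Each compound was tested against a transplantable tumor grown in mice. The endpoint was survival, with treated animals benchmarked against vehicle controls as a simple ratio.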

[1] = dose: 100.0 mg/kg/injection, schedule: Q01DX009 (ip), vehicle: Klucel (hydroxypropylcellulose) (HPC)
[2] = dose: 100.0 mg/kg/injection, schedule: Q04DX003 (ip), vehicle: Klucel (hydroxypropylcellulose) (HPC)
[3] = dose: 200.0 mg/kg/injection, schedule: Q01DX009 (ip), vehicle: Klucel (hydroxypropylcellulose) (HPC)
[4] = dose: 200.0 mg/kg/injection, schedule: Q04DX003 (ip), vehicle: Klucel (hydroxypropylcellulose) (HPC)
[5] = dose: 400.0 mg/kg/injection, schedule: Q01DX009 (ip), vehicle: Klucel (hydroxypropylcellulose) (HPC)
[6] = dose: 400.0 mg/kg/injection, schedule: Q04DX003 (ip), vehicle: Klucel (hydroxypropylcellulose) (HPC)
[7] = dose: 100.0 mg/kg/injection, schedule: Q04DX002 (ip), vehicle: Klucel (hydroxypropylcellulose) (HPC)
[8] = dose: 200.0 mg/kg/injection, schedule: Q04DX002 (ip), vehicle: Klucel (hydroxypropylcellulose) (HPC)
[9] = dose: 400.0 mg/kg/injection, schedule: Q04DX002 (ip), vehicle: Klucel (hydroxypropylcellulose) (HPC)
[10] = dose: 100.0 mg/kg/injection, schedule: Q01DX001 (ip), vehicle: carboxymethylcellulose (CMC)
[11] = dose: 200.0 mg/kg/injection, schedule: Q01DX001 (ip), vehicle: carboxymethylcellulose (CMC)
[12] = dose: 400.0 mg/kg/injection, schedule: Q01DX001 (ip), vehicle: carboxymethylcellulose (CMC)
[13] = dose: 100.0 mg/kg/injection, schedule: Q01DX009 (ip), vehicle: gum acacia
[14] = dose: 100.0 mg/kg/injection, schedule: Q04DX003 (ip), vehicle: gum acacia
[15] = dose: 200.0 mg/kg/injection, schedule: Q04DX003 (ip), vehicle: gum acacia
[16] = dose: 400.0 mg/kg/injection, schedule: Q04DX003 (ip), vehicle: gum acacia
[17] = dose: 25.0 mg/kg/injection, schedule: Q01DX009 (ip), vehicle: saline
[18] = dose: 50.0 mg/kg/injection, schedule: Q01DX009 (ip), vehicle: saline

With `CCCCCCCCCCOC(=O)N1C(=O)NC(=O)C1c1ccccc1` (centres undefined) the T/C [1] was 104 % of control, the T/C [2] was 103 % of control and the T/C [3] was 104 % of control. For the same compound, the T/C [4] was 97 % of control, the T/C [5] was 96 % of control and the T/C [6] was 93 % of control.

In the case of `COC(=O)C/C(=C\c1ccc(OC)c(OC)c1)C(=O)OC`, the T/C [1] is reported as 100 % of control, the T/C [2] is reported as 91 % of control and the T/C [3] is reported as 94 % of control. For the same compound, the T/C [4] was 95 % of control, the T/C [5] was 103 % of control and the T/C [6] was 96 % of control.

For `C[As+]1(N)c2ccccc2Nc2ccccc21`, the T/C (dose: 100.0 mg/kg/injection, schedule: Q01DX001 (ip), vehicle: saline) was 86 % of control, the T/C (dose: 200.0 mg/kg/injection, schedule: Q01DX001 (ip), vehicle: saline) was 93 % of control and the T/C (dose: 400.0 mg/kg/injection, schedule: Q01DX001 (ip), vehicle: saline) was 91 % of control.

For `CCCCCC(C)NCC(C)O` (centres undefined), the T/C (dose: 75.0 mg/kg/injection, schedule: Q01DX001 (ip), vehicle: acid diluted with saline) was 100 % of control.

In the case of `CCOC(=N)N1Cc2ccccc2CCc2ccccc2C1`, the T/C (dose: 6.25 mg/kg/injection, schedule: Q01DX009 (ip), vehicle: Klucel (hydroxypropylcellulose) (HPC)) is reported as 95 % of control, the T/C (dose: 12.5 mg/kg/injection, schedule: Q01DX009 (ip), vehicle: Klucel (hydroxypropylcellulose) (HPC)) is reported as 101 % of control and the T/C (dose: 25.0 mg/kg/injection, schedule: Q01DX009 (ip), vehicle: Klucel (hydroxypropylcellulose) (HPC)) is reported as 101 % of control. The T/C (dose: 25.0 mg/kg/injection, schedule: Q04DX002 (ip), vehicle: Klucel (hydroxypropylcellulose) (HPC)) was 102 % of control and the T/C (dose: 50.0 mg/kg/injection, schedule: Q04DX002 (ip), vehicle: Klucel (hydroxypropylcellulose) (HPC)) was 97 % of control.

In the case of `CCOC(=O)OC1CC/C(=N\NC(N)=S)C1` (centres undefined), the T/C (dose: 15.0 mg/kg/injection, schedule: Q01DX Z (ip), vehicle: methylcellulose (MC)) is reported as 104 % of control, the T/C (dose: 30.0 mg/kg/injection, schedule: Q01DX Z (ip), vehicle: methylcellulose (MC)) is reported as 101 % of control and the T/C (dose: 60.0 mg/kg/injection, schedule: Q01DX Z (ip), vehicle: methylcellulose (MC)) is reported as 108 % of control. For the same compound, the T/C (dose: 120.0 mg/kg/injection, schedule: Q01DX Z (ip), vehicle: methylcellulose (MC)) was 98 % of control.

`CN(C)CCCN1CCC2(CC1)C(C#N)C(=O)NC(=O)C2C#N` (centres undefined) was tested, and the T/C (dose: 100.0 mg/kg/injection, schedule: Q04DX002 (ip), vehicle: saline) was 92 % of control, the T/C (dose: 200.0 mg/kg/injection, schedule: Q04DX002 (ip), vehicle: saline) was 100 % of control and the T/C (dose: 400.0 mg/kg/injection, schedule: Q04DX002 (ip), vehicle: saline) was 111 % of control.

In the case of `CCCCCCCCCCCOc1ccc(C=Nc2ccc(C)cc2)cc1`, the T/C [2] is reported as 101 % of control, the T/C [4] is reported as 98 % of control and the T/C [6] is reported as 98 % of control.

For `O=C(N/N=C/c1[nH]c(=S)[nH]c(=O)c1Cc1ccc(Cl)cc1)c1ccccc1`, the T/C (dose: 100.0 mg/kg/injection, schedule: Q01DX001 (ip), vehicle: saline with Tween-80) was 96 % of control, the T/C (dose: 200.0 mg/kg/injection, schedule: Q01DX001 (ip), vehicle: saline with Tween-80) was 92 % of control and the T/C (dose: 400.0 mg/kg/injection, schedule: Q01DX001 (ip), vehicle: saline with Tween-80) was 123 % of control.

`Cc1ccc(N2C(=O)CC(N3CCCCC3)C2=O)cc1` (centres undefined) was tested, and the T/C [1] was 102 % of control, the T/C [3] was 96 % of control and the T/C [5] was 91 % of control.

For `O=[N+]([O-])c1cc([N+](=O)[O-])c(NC(c2ccccc2)C(O)c2ccccc2)c([N+](=O)[O-])c1` (centres undefined), the T/C (dose: 100.0 mg/kg/injection, schedule: Q04DX003 (ip), vehicle: acetone) was 98 % of control, the T/C (dose: 200.0 mg/kg/injection, schedule: Q04DX003 (ip), vehicle: acetone) was 96 % of control and the T/C (dose: 400.0 mg/kg/injection, schedule: Q04DX003 (ip), vehicle: acetone) was 93 % of control.

With `Clc1c2ccccc2cc2ccccc12` the T/C [7] was 92 % of control, the T/C [8] was 100 % of control and the T/C [9] was 107 % of control.

`CC(=O)Nc1nc2ncc(CCN(C)c3ccc(C(=O)O)cc3)nc2c(=O)[nH]1` was tested, and the T/C (dose: 75.0 mg/kg/injection, schedule: Q01DX001 (ip), vehicle: saline) was 102 % of control and the T/C (dose: 150.0 mg/kg/injection, schedule: Q01DX001 (ip), vehicle: saline) was 101 % of control.

`Cc1ccc(C)c(NC(=O)Nc2c(C)n(C)n(-c3ccccc3)c2=O)c1` was tested, and the T/C [1] was 96 % of control, the T/C [2] was 97 % of control and the T/C [3] was 95 % of control. The T/C [4] was 89 % of control and the T/C [6] was 93 % of control.

`CC(=O)CCNc1ccc(O)c2c1C(=O)c1ccccc1C2=O` was tested, and the T/C [10] was 96 % of control, the T/C [11] was 89 % of control and the T/C [12] was 94 % of control.

`Cc1cc(C(C)(CC(C)C)c2ccc(O)c(C)c2)ccc1O` was tested, and the T/C (dose: 25.0 mg/kg/injection, schedule: Q01DX009 (ip), vehicle: gum acacia) was 96 % of control, the T/C (dose: 50.0 mg/kg/injection, schedule: Q01DX009 (ip), vehicle: gum acacia) was 98 % of control and the T/C [13] was 93 % of control and 89 % of control. The T/C [14] was 97 % of control, the T/C [15] was 93 % of control and the T/C [16] was 90 % of control.

With `CCOCCN1CCN(CCCN2c3ccccc3Sc3ccc(C(F)(F)F)cc32)CC1` the T/C (dose: 0.19 mg/kg/injection, schedule: Q01DX009 (ip), vehicle: water) was 95 % of control, the T/C (dose: 0.39 mg/kg/injection, schedule: Q01DX009 (ip), vehicle: water) was 98 % of control and the T/C (dose: 0.78 mg/kg/injection, schedule: Q01DX009 (ip), vehicle: water) was 111 % of control. For the same compound, the T/C (dose: 1.56 mg/kg/injection, schedule: Q01DX009 (ip), vehicle: water) was 110 % of control, the T/C (dose: 22.0 mg/kg/injection, schedule: Q04DX003 (ip), vehicle: other) was 122 % of control and the T/C (dose: 100.0 mg/kg/injection, schedule: Q04DX003 (ip), vehicle: water) was 98 % of control.

With `CNC(=O)c1ccc(Cl)c(S(=O)(=O)NC)c1` the T/C [7] was 100 % of control, the T/C [8] was 104 % of control and the T/C [9] was 107 % of control.

`O=C(CNc1ccc2c(c1)Cc1cc(Br)ccc1-2)c1ccc(Br)cc1` was tested, and the T/C [10] was 105 % of control, the T/C [11] was 111 % of control and the T/C [12] was 105 % of control.

`Cc1cnc(NC#N)nc1-c1ccccc1O` was tested, and the T/C [7] was 95 % of control, the T/C [8] was 98 % of control and the T/C [9] was 95 % of control.

For `CC(=O)C[P+](c1ccccc1)(c1ccccc1)c1ccccc1`, the T/C (dose: 12.0 mg/kg/injection, schedule: Q01DX009 (ip), vehicle: saline) was 96 % of control, the T/C (dose: 12.0 mg/kg/injection, schedule: Q04DX003 (ip), vehicle: saline) was 104 % of control and the T/C [17] was 96 % of control. The T/C (dose: 25.0 mg/kg/injection, schedule: Q04DX003 (ip), vehicle: saline) was 94 % of control, the T/C [18] was 112 % of control and the T/C (dose: 50.0 mg/kg/injection, schedule: Q04DX003 (ip), vehicle: saline) was 98 % of control.

`O=C(O)C(CSC(c1ccccc1)(c1ccccc1)c1ccccc1)N=Cc1ccccc1O` (centres undefined) was tested, and the T/C (dose: 267.0 mg/kg/injection, schedule: Q01DX001 (ip), vehicle: saline) was 154 % of control and the T/C (dose: 600.0 mg/kg/injection, schedule: Q01DX001 (ip), vehicle: saline) was 154 % of control.

With `Cc1ccc(C(CC(=O)O)CC(=O)O)c(O)c1` the T/C [13] was 96 % of control, the T/C [14] was 95 % of control and the T/C (dose: 200.0 mg/kg/injection, schedule: Q01DX009 (ip), vehicle: gum acacia) was 93 % of control. The T/C [15] was 93 % of control, the T/C (dose: 400.0 mg/kg/injection, schedule: Q01DX009 (ip), vehicle: gum acacia) was 88 % of control and the T/C [16] was 90 % of control.

In the case of `CCC12CCC(=O)C=C1CCCC2=O` (centres undefined), the T/C [17] is reported as 100 % of control, the T/C [18] is reported as 97 % of control and the T/C (dose: 100.0 mg/kg/injection, schedule: Q01DX009 (ip), vehicle: saline) is reported as 90 % of control.

With `CSc1ccc(NC(=O)C(O)C(O)C(O)C(O)CO)cc1` (centres undefined) the T/C (dose: 100.0 mg/kg/injection, schedule: Q04DX003 (ip), vehicle: saline with Tween-80) was 89 % of control, the T/C (dose: 200.0 mg/kg/injection, schedule: Q04DX003 (ip), vehicle: saline with Tween-80) was 100 % of control and the T/C (dose: 400.0 mg/kg/injection, schedule: Q04DX003 (ip), vehicle: saline with Tween-80) was 95 % of control.
